Assay results: US9145392B2, “Imidazole amines as modulators of kinase activity” (Merck Patent GmbH, priority 2011, dated 2015)

Legend:
P70S6K (T412E mutant) = P70S6K (T412E mutant) (Homo sapiens (Human), UniProt P23443, T412E); test: P70S6K enzyme assay; type: biochemical; settings: read-out: IC50 p70S6K
Procedure, shortened: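 Read-out is the substrate/phosphopeptide ratio from mobility-shift electrophoresis on a LabChip 3000.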

His-AKT (Full Length) = His-AKT (Full Length) (Homo sapiens (Human), UniProt P31749); test: AKT enzyme assay; type: biochemical; settings: read-out: IC50 AKT
His-AKT (Full Length), sequence (P31749 whole entry): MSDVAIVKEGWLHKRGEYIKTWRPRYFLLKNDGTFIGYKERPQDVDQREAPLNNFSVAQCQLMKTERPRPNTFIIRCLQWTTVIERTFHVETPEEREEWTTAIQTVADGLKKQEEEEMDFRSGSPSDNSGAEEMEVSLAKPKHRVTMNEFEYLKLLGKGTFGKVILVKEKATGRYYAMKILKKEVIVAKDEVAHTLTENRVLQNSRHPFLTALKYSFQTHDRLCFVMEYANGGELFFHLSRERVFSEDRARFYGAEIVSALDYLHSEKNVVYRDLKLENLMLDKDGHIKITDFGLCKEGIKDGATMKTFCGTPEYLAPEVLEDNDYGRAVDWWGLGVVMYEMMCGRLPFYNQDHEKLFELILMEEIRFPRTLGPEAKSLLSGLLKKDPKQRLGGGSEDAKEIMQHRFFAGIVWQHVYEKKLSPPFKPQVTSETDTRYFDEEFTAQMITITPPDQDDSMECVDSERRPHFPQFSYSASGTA

P70S6K (T412E mutant), sequence (P23443 whole entry T412E): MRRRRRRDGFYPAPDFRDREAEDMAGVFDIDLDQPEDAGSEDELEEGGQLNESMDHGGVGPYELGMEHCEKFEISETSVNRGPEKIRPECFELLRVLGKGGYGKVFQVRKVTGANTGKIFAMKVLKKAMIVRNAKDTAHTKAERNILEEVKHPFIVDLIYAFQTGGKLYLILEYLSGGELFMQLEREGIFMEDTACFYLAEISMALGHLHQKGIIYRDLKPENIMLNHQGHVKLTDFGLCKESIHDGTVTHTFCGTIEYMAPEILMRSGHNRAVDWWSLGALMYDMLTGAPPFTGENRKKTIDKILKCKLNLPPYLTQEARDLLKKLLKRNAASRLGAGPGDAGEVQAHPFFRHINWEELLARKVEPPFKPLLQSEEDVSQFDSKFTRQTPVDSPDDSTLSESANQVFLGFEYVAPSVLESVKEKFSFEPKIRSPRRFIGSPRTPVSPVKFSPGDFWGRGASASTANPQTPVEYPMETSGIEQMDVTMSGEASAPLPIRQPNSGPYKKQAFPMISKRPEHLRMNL

Row | IC50 (P70S6K (T412E mutant)) | IC50 (His-AKT (Full Length)) | SMILES
1 | 2.6 nM | 13 nM | N#Cc1c(N)ncnc1N1CCC(c2nc(-c3ccc(F)cc3)cn2CCN2CCCC2)CC1 [Compound 308]
2 | 2.6 nM | 21 nM | N#Cc1c(N)ncnc1N1CCC(c2nc(-c3cccc(F)c3)cn2CCN2CCCC2)CC1 [Compound 309]
3 | 2.3 nM | 7.6 nM | N#Cc1c(N)ncnc1N1CCC(c2nc(-c3cccc(C(F)(F)F)c3)cn2CCN2CCCC2)CC1 [Compound 310]
4 | 2.3 nM | 8.4 nM | N#Cc1c(N)ncnc1N1CCC(c2nc(-c3cccc(Cl)c3)cn2CCN2CCCC2)CC1 [Compound 311]
5 | 1.9 nM | 2.3 nM | N#Cc1c(N)ncnc1N1CCC(c2nc(-c3ccc(F)c(C(F)(F)F)c3)cn2CCN2CCCCC2)CC1 [Compound 312]
6 | 1.6 nM | 9.3 nM | N#Cc1c(N)ncnc1N1CCC(c2nc(-c3ccc(F)c(F)c3)cn2CCN2CCC2)CC1 [Compound 313]
7 | 1.8 nM | 4.1 nM | N#Cc1c(N)ncnc1N1CCC(c2nc(-c3ccc(OC(F)F)c(F)c3)cn2CCN2CCC2)CC1 [Compound 314]
8 | 99 nM | 500 nM | N#Cc1c(N)ncnc1N1CCC(c2nc(-c3cc[nH]c(=O)c3)cn2CCN2CCC2)CC1 [Compound 315]
9 | 0.8 nM | 24 nM | Cc1ccc(-c2cn(CCN3CCC3)c(C3CCN(c4ncnc(N)c4C#N)CC3)n2)cc1C(F)(F)F [Compound 316]
10 | 1.7 nM | 11 nM | CC(C)c1cc(-c2cn(CCN3CCC3)c(C3CCN(c4ncnc(N)c4C#N)CC3)n2)ccn1 [Compound 317]
11 | 1.4 nM | 15 nM | CCc1cc(-c2cn(CCN3CCC3)c(C3CCN(c4ncnc(N)c4C#N)CC3)n2)ccn1 [Compound 318]
12 | 1.7 nM | 23 nM | N#Cc1c(N)ncnc1N1CCC(c2nc(-c3ccnc(C4CC4)c3)cn2CCN2CCC2)CC1 [Compound 319]
13 | 1.6 nM | 48 nM | Cc1ccc(-c2cn(CCN3CCC3)c(C3CCN(c4ncnc(N)c4C#N)CC3)n2)cc1F [Compound 320]
14 | 2.6 nM | 59 nM | COc1ccc(-c2cn(CCN3CCC3)c(C3CCN(c4ncnc(N)c4C#N)CC3)n2)cc1F [Compound 321]
15 | 1.3 nM | 13 nM | Cc1ccc(-c2cn(CCN3CCC3)c(C3CCN(c4ncnc(N)c4C#N)CC3)n2)cc1Cl [Compound 322]
16 | 8.3 nM | 31 nM | COc1ccc(-c2cn(CCN3CCC3)c(C3CCN(c4ncnc(N)c4C#N)CC3)n2)cc1Cl [Compound 323]
17 | 2.8 nM | 3.5 nM | Cc1cc(-c2cn(CCN3CCCC3)c(C3CCN(c4ncnc(N)c4C#N)CC3)n2)ccc1F [Compound 324]
18 | 0.5 nM | 0.9 nM | Cc1cc(-c2cn(CCN(C)C)c(C3CCN(c4ncnc(N)c4C#N)CC3)n2)ccc1F [Compound 325]
19 | 2.7 nM | 2.5 nM | CCN(CC)CCn1cc(-c2ccc(F)c(C)c2)nc1C1CCN(c2ncnc(N)c2C#N)CC1 [Compound 326]
20 | 5.2 nM | 2.8 nM | CCN(CCn1cc(-c2ccc(F)c(C)c2)nc1C1CCN(c2ncnc(N)c2C#N)CC1)C(C)C [Compound 327]
21 | 8.1 nM | 140 nM | NC(=O)c1c(N)ncnc1N1CCC(c2nc(-c3ccc(F)c(F)c3)cn2CCN2CCC2)CC1 [Compound 328]
22 | 14 nM | 120 nM | NC(=O)c1c(N)ncnc1N1CCC(c2nc(-c3ccc(F)c(F)c3)cn2CCN2CCCC2)CC1 [Compound 329]
23 | 3.6 nM | 14 nM | NC(=O)c1c(N)ncnc1N1CCC(c2nc(-c3ccc(F)c(Cl)c3)cn2CCN2CCCC2)CC1 [Compound 330]
24 | 4.6 nM | 15 nM | NC(=O)c1c(N)ncnc1N1CCC(c2nc(-c3ccc(F)c(C(F)(F)F)c3)cn2CCN2CCCC2)CC1 [Compound 331]
25 | 3.8 nM | 37 nM | CC(C)c1cc(-c2cn(CCN3CCC3)c(C3CCN(c4ncnc(N)c4C(N)=O)CC3)n2)ccn1 [Compound 332]
26 | 21 nM | 380 nM | NC(=O)c1c(N)ncnc1N1CCC(c2nc(-c3ccc(F)cc3)cn2CCN2CCCC2)CC1 [Compound 333]

Row | IC50 (P70S6K (T412E mutant)) | IC50 (His-AKT (Full Length)) | SMILES
27 | 26 nM | 620 nM | NC(=O)c1c(N)ncnc1N1CCC(c2nc(-c3cccc(F)c3)cn2CCN2CCCC2)CC1 [Compound 334]
28 | 13 nM | 92 nM | NC(=O)c1c(N)ncnc1N1CCC(c2nc(-c3cccc(C(F)(F)F)c3)cn2CCN2CCCC2)CC1 [Compound 335]
29 | 7.6 nM | 76 nM | NC(=O)c1c(N)ncnc1N1CCC(c2nc(-c3cccc(Cl)c3)cn2CCN2CCCC2)CC1 [Compound 336]
30 | 3.5 nM | 11 nM | NC(=O)c1c(N)ncnc1N1CCC(c2nc(-c3ccc(F)c(C(F)(F)F)c3)cn2CCN2CCCCC2)CC1 [Compound 337]
31 | 2 nM | 29 nM | NC(=O)c1c(N)ncnc1N1CCC(c2nc(-c3ccc(F)c(OC(F)F)c3)cn2CCN2CCC2)CC1 [Compound 338]
32 | 2700 nM | 5800 nM | NC(=O)c1c(N)ncnc1N1CCC(c2nc(-c3cc[nH]c(=O)c3)cn2CCN2CCC2)CC1 [Compound 339]
33 | 4 nM | 420 nM | Cc1ccc(-c2cn(CCN3CCC3)c(C3CCN(c4ncnc(N)c4C(N)=O)CC3)n2)cc1C(F)(F)F [Compound 340]
34 | 11 nM | 450 nM | CCc1cc(-c2cn(CCN3CCC3)c(C3CCN(c4ncnc(N)c4C(N)=O)CC3)n2)ccn1 [Compound 341]
35 | 3.7 nM | 61 nM | NC(=O)c1c(N)ncnc1N1CCC(c2nc(-c3ccnc(C4CC4)c3)cn2CCN2CCC2)CC1 [Compound 342]
36 | 5.5 nM | 170 nM | CC(C)(C)c1cc(-c2cn(CCN3CCC3)c(C3CCN(c4ncnc(N)c4C(N)=O)CC3)n2)ccn1 [Compound 343]
37 | 25 nM | 2400 nM | Cc1ccc(-c2cn(CCN3CCC3)c(C3CCN(c4ncnc(N)c4C(N)=O)CC3)n2)cc1F [Compound 344]
38 | 100 nM | 13000 nM | COc1ccc(-c2cn(CCN3CCC3)c(C3CCN(c4ncnc(N)c4C(N)=O)CC3)n2)cc1F [Compound 345]
39 | 3.9 nM | 220 nM | Cc1ccc(-c2cn(CCN3CCC3)c(C3CCN(c4ncnc(N)c4C(N)=O)CC3)n2)cc1Cl [Compound 346]
40 | 87 nM | 990 nM | COc1ccc(-c2cn(CCN3CCC3)c(C3CCN(c4ncnc(N)c4C(N)=O)CC3)n2)cc1Cl [Compound 347]
41 | 4 nM | 32 nM | Cc1cc(-c2cn(CCN(C)C)c(C3CCN(c4ncnc(N)c4C(N)=O)CC3)n2)ccc1F [Compound 348]
42 | 25 nM | 55 nM | CCN(CC)CCn1cc(-c2ccc(F)c(C)c2)nc1C1CCN(c2ncnc(N)c2C(N)=O)CC1 [Compound 349]
43 | 2.3 nM | 10 nM | Cc1cc(-c2cn(CCN3CCCC3)c(C3CCN(c4ncnc(N)c4C(N)=O)CC3)n2)ccc1F [Compound 350]
44 | 27 nM | 48 nM | CCN(CCn1cc(-c2ccc(F)c(C)c2)nc1C1CCN(c2ncnc(N)c2C(N)=O)CC1)C(C)C [Compound 351]
45 | 310 nM | 5700 nM | CCc1c(N)ncnc1N1CCC(c2nc(-c3cnc(N(C)C)nc3)cn2CCN2CCC2)CC1 [Compound 352, 6-{4-[1-(2-Azetidin-1-yl-ethyl)-4-(2-dimethylamino-pyrimidin-5-yl)-1H-imidazol-2-yl]-piperidin-1-yl}-5-ethyl-pyrimidin-4-ylamine]
46 | 14 nM | 140 nM | N#Cc1c(N)ncnc1N1CCC(c2nc(-c3ccccc3F)cn2CCN2CCC2)CC1 [Compound 353, 4-Amino-6-{4-[1-(2-azetidin-1-yl-ethyl)-4-(2-fluoro-phenyl)-1H-imidazol-2-yl]-piperidin-1-yl}-pyrimidine-5-carbonitrile]
47 | > 10000 nM | > 10000 nM | N#Cc1c(N)ncnc1N1CCC(c2nc(-c3cccc(S(N)(=O)=O)c3)cn2CCN2CCC2)CC1 [Compound 354, 3-[2-[1-(6-Amino-5-cyano-pyrimidin-4-yl)-piperidin-4-yl]-1-(2-azetidin-1-yl-ethyl)-1H-imidazol-4-yl]-benzenesulfonamide]
48 | 17 nM | 80 nM | CS(=O)(=O)c1cccc(-c2cn(CCN3CCC3)c(C3CCN(c4ncnc(N)c4C#N)CC3)n2)c1 [Compound 355, 4-Amino-6-{4-[1-(2-azetidin-1-yl-ethyl)-4-(3-methanesulfonyl-phenyl)-1H-imidazol-2-yl]-piperidin-1-yl}-pyrimidine-5-carbonitrile]
49 | 80 nM | 560 nM | CS(=O)(=O)c1cccc(-c2cn(CCN3CCC3)c(C3CCN(c4ncnc(N)c4C(N)=O)CC3)n2)c1 [Compound 356, 4-Amino-6-{4-[1-(2-azetidin-1-yl-ethyl)-4-(3-methanesulfonyl-phenyl)-1H-imidazol-2-yl]-piperidin-1-yl}-pyrimidine-5-carboxylic acid amide]
50 | 0.8 nM | 130 nM | N#Cc1c(N)ncnc1N1CCC(c2nc(-c3ccc(F)c(C(F)(F)F)c3)cn2CCO)CC1 [Compound 357, 4-Amino-6-{4-[4-(4-fluoro-3-trifluoromethyl-phenyl)-1-(2-hydroxy-ethyl)-1H-imidazol-2-yl]-piperidin-1-yl}-pyrimidine-5-carbonitrile]
51 | 1.1 nM | 1.6 nM | N#Cc1c(N)ncnc1N1CCC(c2nc(-c3ccc(F)c(C(F)(F)F)c3)cn2CCNCC2CC2)CC1 [Compound 358, 4-Amino-6-{4-[1-[2-(cyclopropylmethyl-amino)-ethyl]-4-(4-fluoro-3-trifluoromethyl-phenyl)-1H-imidazol-2-yl]-piperidin-1-yl}-pyrimidine-5-carbonitrile]
52 | 2.7 nM | 12 nM | NC(=O)c1c(N)ncnc1N1CCC(c2nc(-c3ccc(F)c(C(F)(F)F)c3)cn2CCNCC2CC2)CC1 [Compound 359, 4-Amino-6-{4-[1-[2-(cyclopropylmethyl-amino)-ethyl]-4-(4-fluoro-3-trifluoromethyl-phenyl)-1H-imidazol-2-yl]-piperidin-1-yl}-pyrimidine-5-carboxylic acid amide]
